Measurements published in patent US20190161516A1, “PROTEASOME INHIBITORS” (University of Kentucky Research Foundation, priority 2017, published 2019).
pIC50: −log10 of the molar value.

What was measured:
[1] = tested on: Chymotrypsin-like activity (β5/β5i); assay: Proteasome inhibitory activity, subunit-specific cell lysate IC50, chymotrypsin-like activity; format: biochemical
X/β5 = molecular target: T1, X/β5 (Homo sapiens, UniProt P20618+P28074); assay: Proteasome activity assay, purified 20S proteasome, Ac-WLA-AMC; format: biochemical
T1 construct: purchased R&D Systems
Protocol: Purified 20S human proteasomes (CP and IP, R&D Systems) were used to assess the in vitro inhibition of proteasome catalytic activity by LMP2 inhibitors. In our 96-well format assays involving a 100 μL total volume, 20S proteasomes (0.5 μg/mL) were incubated with inhibitors or reference compounds (e.g., carfilzomib) in assay buffer (20 mM Tris-HCl, 0.5 mM EDTA, 0.035% SDS) at room temperature for 30 min. Reactions were initiated by the addition of fluorogenic substrates containing the AMC (7-amino-4-methylcoumarin) group. Specifically, the following substrates were used: Suc-LLVY-AMC (CT-L activity, 100 μM), Ac-PAL-AMC (LMP2, 100 μM), Ac-WLA-AMC (β5, 20 μM), Ac-nLPnLD-AMC (β1,100 μM), Ac-RLR-AMC (β2/2i, 20 μM), and Ac-ANW-AMC (β5i, 100 μM). The fluorescence of liberated AMC was measured over a period of 90 min at 360 and 460 nm on a SpectraMax M5 fluorescence plate reader (Molecular Devices). For the proteasome activity of brain tissues isolated from AD mice, tissues were homogenized in RIPA buffer (50 mM Tris Cl, pH 7.4, 150 mM NaCl, 5 mM EDTA, 1% Nonidet P-40, 1% sodium deoxycholate, 0.1% SDS, 1% aprotinin, 50 mM NaF) and sonicated. Samples were centrifuged for 40 min at 14,000×g (4° C.). Protein concentration was determined using the Bradford Assay according to the manufacturer's protocol. […] Fluorescence was recorded for 90 min using a Synergy-HT (Bio Tek) plate reader.

LMP7/β5i = molecular target: T2, LMP7/β5i (Homo sapiens, UniProt P20618+P28062); assay: Proteasome activity assay, purified 20S proteasome, Ac-ANW-AMC; format: biochemical
T2 construct: purchased R&D Systems
Protocol: (§1) Purified 20S human proteasomes (CP and IP, R&D Systems) were used to assess the in vitro inhibition of proteasome catalytic activity by LMP2 inhibitors. […] Reactions were initiated by the addition of fluorogenic substrates containing the AMC (7-amino-4-methylcoumarin) group. Specifically, the following substrates were used: Suc-LLVY-AMC (CT-L activity, 100 μM), Ac-PAL-AMC (LMP2, 100 μM), Ac-WLA-AMC (β5, 20 μM), Ac-nLPnLD-AMC (β1,100 μM), Ac-RLR-AMC (β2/2i, 20 μM), and Ac-ANW-AMC (β5i, 100 μM). The fluorescence of liberated AMC was measured over a period of 90 min at 360 and 460 nm on a SpectraMax M5 fluorescence plate reader (Molecular Devices). For the proteasome activity of brain tissues isolated from AD mice, tissues were homogenized in RIPA buffer (50 mM Tris Cl, pH 7.4, 150 mM NaCl, 5 mM EDTA, 1% Nonidet P-40, 1% sodium deoxycholate, 0.1% SDS, 1% aprotinin, 50 mM NaF) and sonicated. Samples were centrifuged for 40 min at 14,000×g (4° C.). Protein concentration was determined using the Bradford Assay according to the manufacturer's protocol. Finally, samples were loaded onto a 96-well plate followed by the addition of the substrate (Ac-PAL-AMC) at 37° C. Fluorescence was recorded for 90 min using a Synergy-HT (Bio Tek) plate reader.

[2] = tested on: APPsw transgenic mouse (Tg2576) and LPS-induced mice (ICR strain); assay: Morris water maze test in AD mouse models; format: in vivo; conditions: FIG. 12A-12D
Protocol: These two compounds were used to investigate the impacts of LMP2 inhibition on cognitive deficits in two animal models of human Alzheimer's disease (AD). In these AD models, AD develops by Aβ deposition (APPsw transgenic mouse) or lipopolysaccharide (LPS)-induced neuroinflammation. For the APPsw transgenic model, also known as Tg2576, 10-month old APPsw mice were treated i.p. with LMP2 inhibitors twice a week for 3 weeks. […] Once treatments were finished, Morris water maze test was performed. All mice were trained for three times a day for 5 days before the test. The escape latency and distance traveled were recorded on a daily-basis over a 5-day period. […] This supports that the efficacy of LMP2 inhibitors is mediated through LMP2 inhibition. One day after the completion of Morris water maze test, the ability of mouse to maintain memory was evaluated by probe trials. […] Sequentially, a step-through latency test was performed a day after the probe trial. […]
The learning trials were conducted over 5 days, with 4 trials per day, with three randomized starting points. […] Swimming pattern of each mouse was monitored and recorded by a camera mounted above the center of the pool, and the escape latency, escape distance and swimming speed were assessed by the SMART-LD program (Panlab, Spain). […]

LMP2/β1i [3] = molecular target: T3, LMP2/β1i (Homo sapiens, UniProt P28065+P40306); assay: Proteasome activity assay, purified 20S proteasome, Ac-PAL-AMC; format: biochemical; design: purchased R&D Systems
Protocol: as §1

LMP2/β1i [4] = molecular target: T3, LMP2/β1i; assay: Proteasome inhibitory activity, subunit-specific cell lysate IC50, LMP2; format: biochemical; design: Subunit-Specific Cell lysate IC50 (μM); endogenous in cells; conditions: read-out: Subunit-Specific Cell lysate IC50, LMP2 (β1i)

pIC50 [1]: < 5.00
pIC50 (X/β5): < 5.00
pIC50 (LMP7/β5i): < 5.00
pIC50 (LMP2/β1i [3]): 7.15
pIC50 (LMP2/β1i [4]): 7.10
Structure (SMILES): CC(C)C[C@H](NC(=O)[C@H](Cc1ccccc1)NC(=O)[C@@H]1CCCN1C(=O)CNC(=O)c1cnccn1)C(=O)[C@@]1(C)CO1 [Analogue 16]
cognitive deficits in the APPsw mice [2]: ameliorates cognitive deficits
